# Experimental data: article PMC3134859, “Chemical Stability of New Acyclovir Analogues with Peptidomimetics” (Scientia Pharmaceutica, 2011)
# Values joined by “and” are separate entries in the source; they are usually repeats but may differ in a detail not shown here. Equal values may be shown once. Read-outs that look alike come from different tables or passages of the source.
# Columns and labels:
# [1] = cited from earlier work
# [2] = cited from earlier work; remark: listed apart in the source
# [3] = Chemical stability (hydrolysis) of acyclovir esters in aqueous buffer, unchanged ester quantified by HPLC; assay type: physicochemical; settings: for pH=1, t½, h: pH 1.0 (0.1 M HCl); for pH=1, t½, h / pH=7.4, t½, h: 37°C, decomposition half-life; for chemical stability at pH 1 (in words): pH 1.0, 37°C, acidic conditions; for pH=7.4, t½, h: pH 7.4 (phosphate buffer); for chemical stability at pH 7.4 (in words): pH 7.4, 37°C
# Experimental: It was established that, under the described experimental conditions, some esters underwent decomposition by hydrolysis. The hydrolysis followed apparent first order kinetics, and the rate constants (K) were obtained as slopes from the semi-logarithmic plots of the unchanged ester concentration versus time. The chemical stability was assessed by means of the decomposition half-lives: t1/2=ln2/K
# Chromatography was carried out isocratically, on a modular KNAUER HPLC system (Germany), consisting of a Smartline Pump 1000, a Smartline Manager 5000 solvent degasser, an injector with a 20 μl loop and a Smartline UV Detector 2600 diode array. The analyses were controlled and the data were acquired with EuroChrom software. The mobile phase consisted of acetonitrile/water in a ratio of 30:70 or 50:50 v/v depending on the polarity of the compound and a flow rate 1 ml/min was used. The detection was performed at relevant λmax for the respective compound (range 252–262 nm).
# A single chromatographic method was used to detect the studied acyclovir esters with thiazole rings containing amino acids (Gly, Ala, Val, Leu) in aqueous buffer solutions at pH 1.0 (0.1 M HCl) and pH 7.4 (phosphate buffer). Twenty microlitres of each sample were injected into a reverse phase HPLC C18 column. The mobile phase consisted of acetonitrile/water at a ratio of 30:70 or 50:50 v/v depending on the polarity of the compound. The analyses of the esters of acyclovir with amino acid (Gly, Ala, Val, Leu) containing thiazole rings were validated. The specificity of the method was investigated by observing potential interference between the esters of acyclovir and its parent drug, acyclovir. No interfering peaks were presented in the chromatograms. The linearity of the relationship between the peak area and concentration was determined by analysing six standard solutions in a concentration range of 0.1–1.0 mmol/l. For all analytes, the relationship between the peak area ratio of the drug to the internal standard and concentration was linear over the entire examined concentration range. The correlation coefficients of the calibration curves were greater than 0.997.
# Hydrolysis of acyclovir esters with thiazole rings containing amino acids (Gly, Ala, Val, Leu) was studied at pH 1.0 (HCl) and pH 7.4 (phosphate buffered saline). Stock solutions of the prodrugs were prepared and used immediately for stability studies. Aliquots (9.8 ml) of the buffer were placed in a screw-capped vial and allowed equilibrate at 37°C. A prodrug stock solution (0.2 ml) was added to the buffer. The vial was placed in a constant shaker bath set at 37°C and 60 rpm. Each sample was directly analysed by HPLC.
# [4] = test system: HSV-2; design: method as in PMID 19400144; settings: cited from earlier work
# [5] = test system: HSV-1; design: method as in PMID 19400144; settings: cited from earlier work
# [6] = cited from earlier work; remark: listed apart in the source
"pH=1, t½, h [3] [h]",chemical stability at pH 1 (in words) [3],"pH=7.4, t½, h [3]",chemical stability at pH 7.4 (in words) [3],Structure (SMILES),effect against HSV-2 [4],other results
1.1±0.1,less stable,5.9±0.5 h,lower stability,"CC(C)(C)OC(=O)NCc1nc(C(=O)OCCOCn2cnc3c(=O)[nH]c(N)nc32)cs1 [compound 1, Boc-2-aminomethyl-thiazole-acyclovir]",,chemical stability at pH 1 (in words) ([3]; listed as Gly-thiazole): rather unstable
1.3±0.1,rather unstable,7.8±0.5 h,satisfying chemical stability,"CC(NC(=O)OC(C)(C)C)c1nc(C(=O)OCCOCn2cnc3c(=O)[nH]c(N)nc32)cs1 (stereo not drawn) [compound 2, Boc-2-Ala-thiazole-acyclovir]",appreciable effect,effect against HSV-2 ([4]; listed as Ala-thiazolyl ester of acyclovir): prominent activity
0.7±0.1,less stable,17 h and 17.8±0.9 h,highest chemical stability,"CC(C)C(NC(=O)OC(C)(C)C)c1nc(C(=O)OCCOCn2cnc3c(=O)[nH]c(N)nc32)cs1 (stereo not drawn) [compound 3, Boc-2-Val-thiazole-acyclovir]",did not exhibit a satisfying effect,effect against HSV-1 [5]: did not exhibit a satisfying effect; chemical stability at pH 7.4 (in words) ([3]; listed as Valthiazole-acyclovir): remarkable

# More lines, now with the values behind:
Structure (SMILES),"pH=1, t½, h [3] [h]",chemical stability at pH 1 (in words) [3],"pH=7.4, t½, h [3]",chemical stability at pH 7.4 (in words) [3],effect against HSV-2 [4],other results
"Nc1nc2c(ncn2COCCO)c(=O)[nH]1 [ACV, 9-[(2-hydroxyethoxy)methyl]guanine]",,,,,,bioavailability by oral administration [1]: 14%; aqueous solubility [2]: low aqueous solubility
"CC(C)CC(NC(=O)OC(C)(C)C)c1nc(C(=O)OCCOCn2cnc3c(=O)[nH]c(N)nc32)cs1 (stereo not drawn) [compound 4, Boc-2-Leu-thiazole-acyclovir]",2.6±0.2,rather unstable,5.0±0.4 h,lower stability,,
CC(C)[C@H](N)C(=O)OCCOCn1cnc2c(=O)[nH]c(N)nc21 [valacyclovir],,,,,,"bioavailability relative to acyclovir ([1]; oral administration): four-fold higher; t½ at pH 7.4 ([6]; pH 7.4, 37°C): 13 h; t½ at pH 7.4 ([6]; pH 7.4): 13 h"
